Measurements taken from publication PMC6225165, “Design and Synthesis of Novel Dehydroepiandrosterone Analogues as Potent Antiproliferative Agents” (Molecules : A Journal of Synthetic Chemistry and Natural …, 2018).

Key:
[1] = tested on: HCT116; experiment: MTT antiproliferative assay, HCT116; format: cell-based, human; details: for % Growth Inhibition at 100 μM HCT116 / IC50 / inhibition at 100 µM: 48 h, MTT; for inhibition at 100 µM: read-out: % Growth Inhibition at 100 μM HCT116; for Selectivity Index HCT116: IC50 on normal cells (L02)/IC50 on tumour cells
Protocol: (§1) The antiproliferative activity of the title compounds against the panel of six different human cancer cell lines, viz. lung (A549), cervix (HeLa), liver (HepG-2), liver (BEL7402), colorectal (HCT116), and breast (MCF-7) cell lines, was evaluated using a standard MTT-based colorimetric assay. All cell lines were obtained from the Key Laboratory of Natural Resources and Functional Molecules of the Changbai Mountain (Yanbian University) and maintained in Dulbecco’s modified Eagle’s medium (DMEM) and RPMI Media 1640 (RPMI1640), supplemented with 10% foetal bovine serum (FBS) at 37 °C in a humidified atmosphere containing 5% CO2.
(§2) Cells were plated in 96-well plates at appropriate densities to ensure exponential growth throughout the experimental period (9 × 10^3 cells per well), and then allowed to adhere for 24 h. Cells were then treated for 48 h with each compound. After 48 h of incubation, 10 μL of MTT solution were added to each well to a final concentration of 2 mg·mL^−1. Plates were then incubated for a further 4 h. After incubation, the MTT solution was removed and 150 μL of DMSO were added to each well for coloration. The plates were shaken vigorously for 10 min at room temperature to ensure complete solubilisation. The optometric density (OD) was read on a microplate reader (EL × 800, BioTek, Highland Park, Winooski, VT, USA) at 492 nm, and the data were subsequently analysed. The percentage of cell growth inhibition was calculated from the following equation:Inhibitory rate (%) = [1 − (ODtreated − ODblank)/(ODcontrol − ODblank)] × 100.
(§3) To obtain the antiproliferative activity of compounds 2a–2w, the compounds were selected in the same way with four serial concentrations (1, 10, 50 and 100 μM) of those compounds. The optometric density (OD) reading was then used to calculate the IC50.

[2] = tested on: A549; experiment: MTT antiproliferative assay, A549; format: cell-based, human; details: for % Growth Inhibition at 100 μM A549 / IC50 / inhibition at 100 µM: 48 h, MTT; for inhibition at 100 µM: read-out: % Growth Inhibition at 100 μM A549; for Selectivity Index A549: IC50 on normal cells (L02)/IC50 on tumour cells
Protocol: as §1, §2, §3

[3] = tested on: MCF-7; experiment: MTT antiproliferative assay, MCF-7; format: cell-based, human; details: for % Growth Inhibition at 100 μM MCF-7 / IC50 / inhibition at 100 µM: 48 h, MTT; for inhibition at 100 µM: read-out: % Growth Inhibition at 100 μM MCF-7
Protocol: as §1, §2, §3

[4] = tested on: BEL7402; experiment: MTT antiproliferative assay, BEL7402; format: cell-based, human; details: for % Growth Inhibition at 100 μM BEL7402 / IC50 / inhibition at 100 µM: 48 h, MTT; for inhibition at 100 µM: read-out: % Growth Inhibition at 100 μM BEL7402; for Selectivity Index BEL7402: IC50 on normal cells (L02)/IC50 on tumour cells
Protocol: as §1, §2, §3

[5] = tested on: HepG-2; experiment: MTT antiproliferative assay, HepG-2; format: cell-based, human; details: for % Growth Inhibition at 100 μM HepG-2 / IC50 / inhibition at 100 µM: 48 h, MTT; for inhibition at 100 µM: read-out: % Growth Inhibition at 100 μM HepG-2; for Selectivity Index HepG-2: IC50 on normal cells (L02)/IC50 on tumour cells
Protocol: as §1, §2, §3

[6] = tested on: human normal liver (L02) cells; experiment: MTT assay on normal cell line L02; format: cell-based; details: 48 h, MTT; for % Growth Inhibition at 100 μM L02 / inhibition at 100 µM: normal cells; for IC50: normal cell line; for inhibition at 100 µM: read-out: % Growth Inhibition at 100 μM L02
[7] = tested on: Hela; experiment: MTT antiproliferative assay, Hela; format: cell-based, human; details: for % Growth Inhibition at 100 μM Hela / IC50 / inhibition at 100 µM: 48 h, MTT; for inhibition at 100 µM: read-out: % Growth Inhibition at 100 μM Hela; for Selectivity Index Hela: IC50 on normal cells (L02)/IC50 on tumour cells
Protocol: as §1, §2, §3

| Structure (SMILES) | % Growth Inhibition at 100 μM HCT116 [1] | % Growth Inhibition at 100 μM A549 [2] | % Growth Inhibition at 100 μM MCF-7 [3] | % Growth Inhibition at 100 μM BEL7402 [4] | % Growth Inhibition at 100 μM HepG-2 [5] | % Growth Inhibition at 100 μM L02 [6] | % Growth Inhibition at 100 μM Hela [7] | inhibition at 100 µM ([1]; Homo sapiens, HCT-116) [%] | inhibition at 100 µM ([2]; Homo sapiens, A549) [%] | inhibition at 100 µM ([3]; Homo sapiens, MCF7) [%] | inhibition at 100 µM ([4]; Homo sapiens, Bel-7402) [%] | inhibition at 100 µM ([5]; Homo sapiens, HepG2) [%] | inhibition at 100 µM ([6]; Homo sapiens, L02) [%] | inhibition at 100 µM ([7]; Homo sapiens) [%] | further results |
| --- | --- | --- | --- | --- | --- | --- | --- | --- | --- | --- | --- | --- | --- | --- | --- |
| CC12CCC3C(CC=C4CC(O)CCC43C)C1C/C(=C\c1cn(-c3ccc(Cl)c(Cl)c3)nn1)C2=O (stereo not shown) [Compound 2h, (E)-16-((1-(3,4-dichlorophenyl)-1H-1,2,3-triazol-4-yl)methylene)-3-hydroxy-10,13-dimethyl-1,3,4,7,8,9,10,11,12,13,15,16-dodecahydro-2H-cyclopenta[a]phenan-thren-17(14H)-one] | 74.4% | 70.7% | 80.0% | 70.1% | 48.2% | 67.9% | 68.7% | – | – | – | – | – | – | – | IC50 [1]: 11.9 µM; IC50 [2]: 17.5 µM; IC50 [3]: 14.9 µM; IC50 [4]: 16 µM; IC50 [5]: > 100 µM; IC50 [6]: 26.4 µM; IC50 [7]: 15.1 µM |
| CC12CCC3C(CC=C4CC(O)CCC43C)C1C/C(=C\c1cn(-c3cccc(F)c3)nn1)C2=O (stereo not shown) [Compound 2c, (E)-16-((1-(3-fluorophenyl)-1H-1,2,3-triazol-4-yl)methylene)-3-hydroxy-10,13-dimethyl-1,3,4,7,8,9,10,11,12,13,15,16-dodecahydro-2H-cyclopenta[a]phenanthren-17(14H)-one] | – | – | – | – | – | – | – | 78.3 | 60.5 | 31.2 | 66.7 | 78.8 | 79.3 | 55.2 | IC50 ([1]; Homo sapiens, HCT-116): 26.3 µM; Selectivity Index HCT116 [1]: 3.17; IC50 ([2]; Homo sapiens, A549): 51.6 µM; Selectivity Index A549 [2]: 1.61; IC50 ([3]; Homo sapiens, MCF7): > 100 µM; IC50 ([4]; Homo sapiens, Bel-7402): 68.9 µM; Selectivity Index BEL7402 [4]: 1.21; IC50 ([5]; Homo sapiens, HepG2): 11.1 µM; Selectivity Index HepG-2 [5]: 7.53; IC50 ([6]; Homo sapiens, L02): 83.4 µM; IC50 ([7]; Homo sapiens, HeLa): 83.5 µM; Selectivity Index Hela [7]: 0.99 |
| CC12CCC3C(CC=C4CC(O)CCC43C)C1C/C(=C\c1cn(-c3cccc(I)c3)nn1)C2=O (stereo not shown) [Compound 2m, (E)-3-hydroxy-16-((1-(3-iodophenyl)-1H-1,2,3-triazol-4-yl)methylene)-10,13-dim-ethyl-1,3,4,7,8,9,10,11,12,13,15,16-dodecahydro-2H-cyclopenta[a]phenanthren-17(14H)-one] | 7.6% | NA (NA: antiproliferative activity <5%) | NA (NA: antiproliferative activity <5%) | 14.1% | NA (NA: antiproliferative activity <5%) | NA (NA: antiproliferative activity <5%) | NA (NA: antiproliferative activity <5%) | – | – | – | – | – | – | – | – |
| CC12CCC3C(CC=C4CC(O)CCC43C)C1C/C(=C\c1cn(-c3ccccc3I)nn1)C2=O (stereo not shown) [Compound 2l, (E)-3-hydroxy-16-((1-(2-iodophenyl)-1H-1,2,3-triazol-4-yl)methylene)-10,13-dim-ethyl-1,3,4,7,8,9,10,11,12,13,15,16-dodecahydro-2H-cyclopenta[a]phenanthren-17(14H)-one] | NA (NA: antiproliferative activity <5%) | NA (NA: antiproliferative activity <5%) | NA (NA: antiproliferative activity <5%) | NA (NA: antiproliferative activity <5%) | NA (NA: antiproliferative activity <5%) | NA (NA: antiproliferative activity <5%) | NA (NA: antiproliferative activity <5%) | – | – | – | – | – | – | – | – |
| COc1cc(-n2cc(/C=C3\CC4C5CC=C6CC(O)CCC6(C)C5CCC4(C)C3=O)nn2)cc(OC)c1OC (stereo not shown) [Compound 2u, (E)-3-hydroxy-10,13-dimethyl-16-((1-(3,4,5-trimethoxyphenyl)-1H-1,2,3-triazol-4-yl)methylene)-1,3,4,7,8,9,10,11,12,13,15,16-dodecahydro-2H-cyclopenta[a]phenanthren17(14H)-one] | – | – | – | – | – | – | – | 59.2 | 40.3 | 36.3 | 51.2 | 59.1 | 36.4 | 60.5 | – |
| CC12CCC3C(CC=C4CC(O)CCC43C)C1C/C(=C\c1cn(-c3ccccc3)nn1)C2=O (stereo not shown) [Compound 2a, (E)-3-hydroxy-10,13-dimethyl-16-((1-phenyl-1H-1,2,3-triazol-4-yl)methylene)-1,3,4,7,8,9,10,11,12,13,15,16-dodecahydro-2H-cyclopenta[a]phenanthren-17(14H)-one] | – | – | – | – | – | – | – | 11.1 | 30.3 | < 5 | 12.9 | 10.2 | 22.3 | < 5 | – |
| C[C@]12CC[C@H](O)CC1=CC[C@@H]1[C@@H]2CC[C@]2(C)C(=O)CC[C@@H]12 [DHEA, Dehydroepiandrosterone] | – | – | – | – | – | – | – | 47.3 | 24.8 | 17.1 | 46.5 | 10.9 | 44.6 | 15.7 | – |
| CC12CCC3C(CC=C4CC(O)CCC43C)C1C/C(=C\c1cn(-c3ccc(F)cc3)nn1)C2=O (stereo not shown) [Compound 2d, (E)-16-((1-(4-fluorophenyl)-1H-1,2,3-triazol-4-yl)methylene)-3-hydroxy-10,13-dimethyl-1,3,4,7,8,9,10,11,12,13,15,16-dodecahydro-2H-cyclopenta[a]phenanthren-17(14H)-one] | – | – | – | – | – | – | – | 84.9 | 68.8 | 83 | 60.4 | 65.6 | 80.3 | 78.9 | IC50 ([1]; Homo sapiens, HCT-116): 33.2 µM; Selectivity Index HCT116 [1]: 0.83; IC50 ([2]; Homo sapiens, A549): 15.8 µM; Selectivity Index A549 [2]: 1.76; IC50 ([3]; Homo sapiens, MCF7): 17.8 µM; Selectivity Index MCF-7 ([3]; IC50 on normal cells (L02)/IC50 on tumour cells): 1.56; IC50 ([4]; Homo sapiens, Bel-7402): 40.4 µM; Selectivity Index BEL7402 [4]: 0.69; IC50 ([5]; Homo sapiens, HepG2): 36.2 µM; Selectivity Index HepG-2 [5]: 0.77; IC50 ([6]; Homo sapiens, L02): 27.8 µM; IC50 ([7]; Homo sapiens, HeLa): 13.2 µM; Selectivity Index Hela [7]: 2.10 |
